Legend:
Format in all cases: physicochemical
[1] = Aerodynamic particle size determination (APSD) via New Generation Impactor (NGI); details: 20 mg in size 3 HPMC capsule, Plastiape Monodose inhaler
Method: To compare in vitro performance of the different forms for use in inhalation products, an aerodynamic particle size determination (APSD) was performed via New Generation Impactor (NGI) for Form 5 material produced via microfluidization and the amorphous form produced via spray drying. These were compared with the APSD obtained from micronized Form 1 material. For each APSD test, 20 mg 3,3′-Dideoxy-3,3′-bis-[4-(3-fluorophenyl)-1H-1,2,3-triazol-1-yl]-1,1′-sulfanediyl-di-β-D-galactopyranoside was filled into a size 3 HPMC capsule and actuated using a Plastiape Monodose inhaler device.

[2] = Stability of micronized Form 1 under ICH conditions
Description: There is no increase in impurities and both the particle size and crystalline form remain unchanged.

[3] = Solid form stability and moisture uptake
[4] = listed as Amorphous (Spray Drying)
[5] = listed as Form 5 (microfluidization)

OCC1O[C@@H](SC2O[C@H](CO)C(O)C(n3cc(-c4cccc(F)c4)nn3)[C@H]2O)C(O)C(n2cc(-c3cccc(F)c3)nn2)[C@H]1O (stereo partly drawn) [Amorphous, 3,3′-Dideoxy-3,3′-bis-[4-(3-fluorophenyl)-1H-1,2,3-triazol-1-yl]-1,1′-sulfanediyl-di-β-D-galactopyranoside]
Mean Mass Aerodynamic Diameter (MMAD) [1]: in the respirable range
Fine Particle Dose (FPD) [1, 4]: 11.8 mg
Fine Particle Fraction (FPF) [1, 4]: 91%
Mean Mass Aerodynamic Diameter (MMAD) [1, 4]: 1.7 μm

OC[C@H]1O[C@@H](S[C@@H]2O[C@H](CO)[C@H](O)[C@H](n3cc(-c4cccc(F)c4)nn3)[C@H]2O)[C@H](O)[C@@H](n2cc(-c3cccc(F)c3)nn2)[C@H]1O [Form 1, 3,3′-Dideoxy-3,3′-bis-[4-(3-fluorophenyl)-1H-1,2,3-triazol-1-yl]-1,1′-sulfanediyl-di-β-D-galactopyranoside]
Mean Mass Aerodynamic Diameter (MMAD) [1]: in the respirable range
Fine Particle Dose (FPD) ([1]; listed as Form 1 (micronized)): 7.4 mg
Fine Particle Fraction (FPF) ([1]; listed as Form 1 (micronized)): 77%
Mean Mass Aerodynamic Diameter (MMAD) ([1]; listed as Form 1 (micronized)): 2.6 μm
Appearance ([2]; 6 Months @ 40° C./75 RH): Conforms
Assay ([2]; 6 Months @ 40° C./75 RH): 97.2%
Particle Size D10 ([2]; 6 Months @ 40° C./75 RH): 0.50 μm
Particle Size D50 ([2]; 6 Months @ 40° C./75 RH): 1.97 μm
Particle Size D90 ([2]; 6 Months @ 40° C./75 RH): 4.68 μm
Polymorphism (crystalline form found) ([2]; 6 Months @ 40° C./75 RH): Form 1
Specified impurity DEX-IMP-284-B ([2]; 6 Months @ 40° C./75 RH): 0.89%
Specified impurity DEX-IMP-284-C ([2]; 6 Months @ 40° C./75 RH): 0.05%
Total Impurities ([2]; 6 Months @ 40° C./75 RH): 1.57%
Unspecified impurity 0.922RRT ([2]; 6 Months @ 40° C./75 RH): 0.12%
Unspecified impurity 1.057RRT ([2]; 6 Months @ 40° C./75 RH): 0.11%
Unspecified impurity 1.184RRT ([2]; 6 Months @ 40° C./75 RH): 0.34%
Water Content ([2]; 6 Months @ 40° C./75 RH): 5.2%
Appearance ([2]; 12 Months 25° C./60 RH): Conforms
Assay ([2]; 12 Months 25° C./60 RH): 97.7%
Particle Size D10 ([2]; 12 Months 25° C./60 RH): 0.51 μm
Particle Size D50 ([2]; 12 Months 25° C./60 RH): 1.84 μm
Particle Size D90 ([2]; 12 Months 25° C./60 RH): 4.29 μm
Polymorphism (crystalline form found) ([2]; 12 Months 25° C./60 RH): Form 1
Specified impurity DEX-IMP-284-B ([2]; 12 Months 25° C./60 RH): 0.89%
Specified impurity DEX-IMP-284-C ([2]; 12 Months 25° C./60 RH): 0.04%
Total Impurities ([2]; 12 Months 25° C./60 RH): 1.54%
Unspecified impurity 0.922RRT ([2]; 12 Months 25° C./60 RH): 0.12%
Unspecified impurity 1.057RRT ([2]; 12 Months 25° C./60 RH): 0.10%
Unspecified impurity 1.184RRT ([2]; 12 Months 25° C./60 RH): 0.34%
Water Content ([2]; 12 Months 25° C./60 RH): 4.4%
Overall stability conclusion (in words) ([2]; ICH conditions, Table 3A): stable both chemically and physically
Particle Size D10 ([2]; Initial): 0.56 μm
Polymorphism (crystalline form found) ([2]; Initial): Form 1
Unspecified impurity 1.057RRT ([2]; Initial): 0.08%
Unspecified impurity 1.184RRT ([2]; Initial): 0.34%
Water Content ([2]; Initial): 4.2%
Assay ([2]; Initial, criterion 95.0-105.0% w/w): 97.9%
Appearance ([2]; Initial, criterion white to off-white solid): Conforms
Specified impurity DEX-IMP-284-B ([2]; Initial, criterion ≤1% (a/a)): 0.90%
Specified impurity DEX-IMP-284-C ([2]; Initial, criterion ≤1% (a/a)): 0.03%
Unspecified impurity 0.922RRT ([2]; Initial, criterion ≤1% each (a/a)): 0.12%
Total Impurities ([2]; Initial, criterion ≤2.5% (a/a)): 1.54%
Particle Size D50 ([2]; Initial, target D50 ~2 μm): 2.37 μm
Particle Size D90 ([2]; Initial, target D90 ≤5 μm): 5.09 μm
Stability of the solid form (in words) [3]: stable and does not convert to the other forms over time
Equilibrium water content after moisture pick-up ([3]; dried upon synthesis, then picks up moisture): 3-5%

OCC1O[C@@H](SC2O[C@H](CO)C(O)C(n3cc(-c4cccc(F)c4)nn3)[C@H]2O)C(O)C(n2cc(-c3cccc(F)c3)nn2)[C@H]1O (stereo partly drawn) [Form 5, 3,3′-Dideoxy-3,3′-bis-[4-(3-fluorophenyl)-1H-1,2,3-triazol-1-yl]-1,1′-sulfanediyl-di-β-D-galactopyranoside]
Mean Mass Aerodynamic Diameter (MMAD) [1]: in the respirable range
Fine Particle Dose (FPD) [1, 5]: 7.7 mg
Fine Particle Fraction (FPF) [1, 5]: 63%
Mean Mass Aerodynamic Diameter (MMAD) [1, 5]: 2.3 μm
Stability of the solid form (in words) [3]: stable
